Each structure is given as a SMILES string. Calls of active or inactive are those of the source. The calls are words filed in the database; no cut-off is given here.

Format in all cases: functional, organism-based
Experiment [1] relates to Aspergillus flavus. The experiment can be described thus: Antifungal activity against Aspergillus flavus assessed as inhibition of mycelial growth in dextrose sabouraud broth and Czapek agar at 0.6 mg/ml at 28 +/- 1 degC for 72 hr by dilution technique.
In experiment [2] the test system is Aspergillus flavus. The experiment can be described thus: Antifungal activity against Aspergillus flavus assessed as inhibition of mycelial growth in dextrose sabouraud broth and Czapek agar at 0.4 mg/ml at 28 +/- 1 degC for 72 hr by dilution technique.
The subject of experiment [3] is Aspergillus flavus. The experiment can be described thus: Antifungal activity against Aspergillus flavus assessed as inhibition of mycelial growth in dextrose sabouraud broth and Czapek agar at 0.3 mg/ml at 28 +/- 1 degC for 72 hr by dilution technique.
For experiment [4], the system named is Aspergillus flavus. The experiment can be described thus: Antifungal activity against Aspergillus flavus assessed as inhibition of mycelial growth in dextrose sabouraud broth and Czapek agar at 0.5 mg/ml at 28 +/- 1 degC for 72 hr by dilution technique.
In experiment [5] the test system is Aspergillus flavus. The experiment can be described thus: Antifungal activity against Aspergillus flavus assessed as inhibition of mycelial growth in dextrose sabouraud broth and Czapek agar at 0.2 mg/ml at 28 +/- 1 degC for 72 hr by dilution technique.
Experiment [6] concerns Aspergillus flavus. Put plainly: Antifungal activity against Aspergillus flavus assessed as inhibition of mycelial growth in dextrose sabouraud broth and Czapek agar at 0.1 mg/ml at 28 +/- 1 degC for 72 hr by dilution technique.
A further experiment has as its system Sclerotinia sclerotiorum. The experiment can be described thus: Antifungal activity against Sclerotinia sclerotiorum assessed as inhibition of mycelial growth in dextrose sabouraud broth and Czapek agar at 28 +/- 1 degC for 72 hr by dilution technique.

With `CC1=CC(=O)C(C(C)C)CC1` (centres undefined), the result with Aspergillus flavus [1] was Active. Also, the outcome with Aspergillus flavus [2], in the experiment with Aspergillus flavus [3], in the experiment on Aspergillus flavus [4], in the experiment on Aspergillus flavus [5] and in the experiment with Aspergillus flavus [6] was inactive.

On to `CC12CCC(CC1)C(C)(C)O2`, for which the outcome in the experiment with Aspergillus flavus [1], in the experiment with Aspergillus flavus [2], in the experiment with Aspergillus flavus [3], with Aspergillus flavus [4], with Aspergillus flavus [5] and with Aspergillus flavus [6] was inactive.

In the case of `C=CC(C)(CCC=C(C)C)OC(C)=O` (centres undefined) [LINALYL ACETATE], the outcome with Aspergillus flavus [1], with Aspergillus flavus [2], with Aspergillus flavus [3], in the experiment with Aspergillus flavus [4], in the experiment with Aspergillus flavus [5] and in the experiment on Aspergillus flavus [6] was inactive. Also, the EC50 in the experiment with Sclerotinia sclerotiorum is given as 569.62 uL/L.
